≈ marks a conversion by molar mass, not a printed value.
How the values were obtained:
[1] = system: Escherichia coli (E. coli) BAS849; assay: Antibacterial activity, microbroth dilution MIC (Table 1); assay type: cell-based; details: microbroth dilution, super sensitive Gram-negative E. coli BAS849, read-out: MIC, BAS849
In short: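 Values are MICs (μg/mL): the smallest drug amount at which macroscopically visible bacterial growth is absent under assay conditions, from a microdilution method in broth.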

[2] = system: Staphylococcus aureus (S. aureus) 29213; assay: as above; assay type: cell-based; details: microbroth dilution, Gram-positive S. aureus 29213, read-out: MIC, 29213
In short: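 In a microbroth dilution test, the minimum inhibitory concentration was defined as the lowest compound level preventing growth seen by eye, and was given in μg/mL.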

E. coli 25922 = assay: as above; assay type: cell-based, Escherichia coli; details: Escherichia coli; microbroth dilution; control Gram-negative E. coli 25922 strain; read-out: MIC, 25922
In short: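 Microbroth dilution was used. MIC, in μg/mL, is the lowest drug concentration preventing macroscopically visible growth under the test conditions.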

E. coli LZ3111 = assay: Antibacterial activity, MIC, quinolone resistant strain (Table 2); assay type: cell-based; details: Escherichia coli, LZ3111, read-out: MIC LZ3111
In short: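 Growth inhibition assessed by serial drug dilution in broth; endpoint was absence of macroscopically visible growth, reported as MIC, μg/mL.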

[3] = system: Acinetobacter baumannii (A. baumannii) BAA747; assay: Antibacterial activity, MIC (Table 4); assay type: cell-based; details: A. baumannii BAA747, read-out: MIC, BAA747
Source text: (§1) The antibacterial activity from a microbroth dilution method may be presented as the minimum inhibitory concentration (MIC in μg/mL). The MIC value is the lowest concentration of drug which prevents macroscopically visible growth under test conditions.
(§2) Antibacterial activity of test compounds against the Gram-negative Acinetobacter baumannii (A. baumannii) BAA747 and Klebsiella pneumoniae (K. pneumoniae) 35657 bacterium and the resistant A. baumannii MXX2240 and K. pneumoniae MXX1232 strains are shown in Table 4. The MMX strains are multi-drug resistant clinical isolates.

[4] = system: Klebsiella pneumoniae (K. pneumoniae) 35657; assay: Antibacterial activity, MIC (Table 4); assay type: cell-based; details: K. pneumoniae 35657, read-out: MIC, 35657
Source text: as §1, §2

A. baumannii MXX2240 = assay: Antibacterial activity, MIC, resistant strain (Table 4); assay type: cell-based; details: Acinetobacter baumannii, MXX2240; resistant A. baumannii MMX2240, multi-drug resistant clinical isolate; read-out: MIC, MMX2240
Source text: as §1, §2

K. pneumoniae MXX1232 = assay: as above; assay type: cell-based; details: Klebsiella pneumoniae, MXX1232; resistant K. pneumoniae MMX1232, multi-drug resistant clinical isolate; read-out: MIC, MMX1232
Source text: as §1, §2

[5] = system: Pseudomonas aeruginosa (P. aeruginosa) 27853; assay: Antibacterial activity, MIC (Table 5); assay type: cell-based; details: P. aeruginosa 27853, read-out: MIC, 27853
Source text: as §1
Antibacterial activity of test compounds against the Gram-negative bacterium Pseudomonas aeruginosa (P. aeruginosa) 27853 is shown in Table 5.

Row | SMILES | MIC [1] [µg/mL] | MIC [2] [µg/mL] | MIC (E. coli 25922) [µg/mL] | MIC (E. coli LZ3111) [µg/mL] | MIC [3] [µg/mL] | MIC [4] [µg/mL] | MIC (A. baumannii MXX2240) [µg/mL] | MIC (K. pneumoniae MXX1232) [µg/mL] | MIC [5] [µg/mL]
1 | CCc1c(-c2ccc3cc(C)cn3c2)[nH]c(=O)c(C(=O)O)c1O [Cpd 429, 5-ethyl-4-hydroxy-6-(2-methylindolizin-6-yl)-2-oxo-1,2-dihydropyridine-3-carboxylic acid] | 12.5 to 150 (≈ 40 to 480 µM) | 12.5 to 150 (≈ 40 to 480 µM) | 12.5 to 150 (≈ 40 to 480 µM) | 12.5 to 150 (≈ 40 to 480 µM) | 12.5 to 150 (≈ 40 to 480 µM) | 12.5 to 150 (≈ 40 to 480 µM) | 12.5 to 150 (≈ 40 to 480 µM) | 12.5 to 150 (≈ 40 to 480 µM) | 12.5 to 150 (≈ 40 to 480 µM)
2 | CCc1cc(C(=O)O)c(=O)[nH]c1-c1cnc2c(c1)ncn2C [Cpd 52, 5-ethyl-6-(3-methyl-3H-imidazo[4,5-b]pyridin-6-yl)-2-oxo-1,2-dihydropyridine-3-carboxylic acid] | 12.5 to 150 (≈ 41.9 to 503 µM) | 12.5 to 150 (≈ 41.9 to 503 µM) | 12.5 to 150 (≈ 41.9 to 503 µM) | 12.5 to 150 (≈ 41.9 to 503 µM) | 12.5 to 150 (≈ 41.9 to 503 µM) | 12.5 to 150 (≈ 41.9 to 503 µM) | 12.5 to 150 (≈ 41.9 to 503 µM) | 12.5 to 150 (≈ 41.9 to 503 µM) | 12.5 to 150 (≈ 41.9 to 503 µM)
3 | CCCc1c(-c2ccc3c(c2)cc(CN(C)C)n3C)[nH]c(=O)c(C(=O)O)c1O [Cpd 340, 6-(2-((dimethylamino)methyl)-1-methyl-1H-indol-5-yl)-4-hydroxy-2-oxo-5-propyl-1,2-dihydropyridine-3-carboxylic acid] | < 1 | 12.5 to 150 (≈ 32.6 to 391 µM) | 3.5 to 12.5 (≈ 9.13 to 32.6 µM) | 3.5 to 12.5 (≈ 9.13 to 32.6 µM) | 12.5 to 150 (≈ 32.6 to 391 µM) | 3.5 to 12.5 (≈ 9.13 to 32.6 µM) | 3.5 to 12.5 (≈ 9.13 to 32.6 µM) | 12.5 to 150 (≈ 32.6 to 391 µM) | 12.5 to 150 (≈ 32.6 to 391 µM)
4 | Cc1c(-c2ccc3c(c2)cc(CNCCN)n3C)[nH]c(=O)c(C(=O)O)c1O [Cpd 343, 6-(2-((2-aminoethylamino)methyl)-1-methyl-1H-indol-5-yl)-4-hydroxy-5-methyl-2-oxo-1,2-dihydropyridine-3-carboxylic acid] | 12.5 to 150 (≈ 33.7 to 405 µM) | 12.5 to 150 (≈ 33.7 to 405 µM) | 12.5 to 150 (≈ 33.7 to 405 µM) | 12.5 to 150 (≈ 33.7 to 405 µM) | 12.5 to 150 (≈ 33.7 to 405 µM) | 12.5 to 150 (≈ 33.7 to 405 µM) | 12.5 to 150 (≈ 33.7 to 405 µM) | 12.5 to 150 (≈ 33.7 to 405 µM) | 12.5 to 150 (≈ 33.7 to 405 µM)
5 | CCc1c(-c2ccc3c(c2)cc(CNCc2cccnc2)n3C)[nH]c(=O)c(C(=O)O)c1O.Cl [Cpd 220, 5-ethyl-4-hydroxy-6-(1-methyl-2-((pyridin-3-ylmethylamino)methyl)-1H-indol-5-yl)-2-oxo-1,2-dihydropyridine-3-carboxylic acid hydrochloride] | < 1 | 1 to 3.5 | < 1 | 12.5 to 150 |  | 3.5 to 12.5 |  | 12.5 to 150 | 
6 | CCc1c(-c2ccc3c(c2)cc(CN2CCC(O)CC2)n3C)[nH]c(=O)c(C(=O)O)c1O [Cpd 254, 5-ethyl-4-hydroxy-6-(2-((4-hydroxypiperidin-1-yl)methyl)-1-methyl-1H-indol-5-yl)-2-oxo-1,2-dihydropyridine-3-carboxylic acid] | < 1 | 3.5 to 12.5 (≈ 8.23 to 29.4 µM) | 1 to 3.5 (≈ 2.35 to 8.23 µM) | 12.5 to 150 (≈ 29.4 to 353 µM) |  | 3.5 to 12.5 (≈ 8.23 to 29.4 µM) |  | 12.5 to 150 (≈ 29.4 to 353 µM) | 
7 | CCc1c(-c2ccc3c(c2)cc(CN2C[C@@H]4[C@H](C2)[C@H]4NC)n3C)[nH]c(=O)c(C(=O)O)c1O [Cpd 208, 5-ethyl-4-hydroxy-6-(1-methyl-2-(((1R,5S,6s)-6-(methylamino)-3-azabicyclo[3.1.0]hexan-3-yl)methyl)-1H-indol-5-yl)-2-oxo-1,2-dihydropyridine-3-carboxylic acid] | < 1 | 3.5 to 12.5 (≈ 8.02 to 28.6 µM) | < 1 | 3.5 to 12.5 (≈ 8.02 to 28.6 µM) |  |  | 12.5 to 150 (≈ 28.6 to 344 µM) | 12.5 to 150 (≈ 28.6 to 344 µM) | 
8 | CCc1c(-c2ccc3c(c2)cc(CNCc2ccccc2)n3C)[nH]c(=O)c(C(=O)O)c1O.Cl [Cpd 214, 6-(2-((benzylamino)methyl)-1-methyl-1H-indol-5-yl)-5-ethyl-4-hydroxy-2-oxo-1,2-dihydropyridine-3-carboxylic acid hydrochloride] | < 1 | 1 to 3.5 | < 1 | 12.5 to 150 |  | 12.5 to 150 |  | 12.5 to 150 | 
9 | CCc1c(-c2ccc3c(c2)cc(CNCc2ccncc2)n3C)[nH]c(=O)c(C(=O)O)c1O.Cl [Cpd 221, 5-ethyl-4-hydroxy-6-(1-methyl-2-((pyridin-4-ylmethylamino)methyl)-1H-indol-5-yl)-2-oxo-1,2-dihydropyridine-3-carboxylic acid hydrochloride] | < 1 | 1 to 3.5 | 1 to 3.5 | 12.5 to 150 |  | 1 to 3.5 |  | 12.5 to 150 | 
